Data set [1] has as its system HCT-116 colon carcinoma cells xenografted in immunoincompetent mice. Particulars: for Normalised tumour weight: mean of n = 10.
The subject of the next data set is HCT-116 cells. Briefly: MTT cytotoxicity assay, HCT-116. To be noted: read-out: IC50 values, MTT cytotoxicity assay; HCT-116, 48 h. (Tetrazolium dyes change colour on reduction, which living cells bring about.)
The test system of another data set is DU-145 cells. Description: MTT cytotoxicity assay, DU-145. Particulars: read-out: IC50 values, MTT cytotoxicity assay; DU-145, 48 h.
Data set [2] has as its system ex vivo AML patient blasts. Briefly: Cell cycle and apoptosis in ex vivo AML patient blasts. Particulars: for cell cycle arrest and apoptosis (caspase 3 activation): 4 ex vivo cultures, AML patients #102, #108, #109, #116. It counts as cell-based, human. How it is done:
FIG. 4: a) Cell cycle analyses and apoptosis carried out in ex vivo samples from AML patients identified with numbers; b) Cell cycle analysis, apoptosis and histone H3 acetylation levels of #116 AML cells after 20 hrs is of the indicated treatments.
(§1) Human leukemia cell line U937 was propagated in RPMI medium supplemented with 10% FBS (Foetal bovine serum; Hyclone) and antibiotics (100 U/mL penicillin, 100 μg/mL streptomycin and 250 ng/mL amphotericin-B). Cells were kept at the constant concentration of 200000 cells per milliliter of culture medium. For AML samples, bone marrow containing 80% to 90% leukemic blasts was purified over Ficoll. This study was approved by the Ethical Committee of the Second University of Naples.

Another data set has as its system A-375 cells. Description: MTT cytotoxicity assay, A-375. To be noted: read-out: IC50 values, MTT cytotoxicity assay; A-375, 48 h.
Another data set concerns p16INK4a promoter. Briefly: Methylation specific PCR for the p16 gene. It counts as cell-based. To be noted: 24 hrs. How it is done:
FIG. 2: a) Methylation specific PCR for the RARβ gene after 16 and 24 hrs of treatment with the indicated compounds; b) Methylation specific PCR for the p16 gene after 24 hrs of the indicated treatments. Samples are representative of real duplicates; c) p16 expression levels in U937 cells after 24 hrs with the indicated treatments; d) DNMT enzymatic in vitro assay carried out with 1.5 and 50 μM of the indicated compounds;
DNA extraction was performed as described below. Bisulfite treatment and PCR for the determination of p16 methylation was performed as described from the suppliers (Chemicon).

For the next data set, the system named is HDAC. Particulars: cited from earlier work.
A further data set has as its system p21WAF1/CIP1. Briefly: p21 expression, Western blot in U937 cells. It counts as cell-based, human. Here is the method:
(§2) FIG. 1: a) Cell cycle analysis of U937 cells treated for 30 hrs with the indicated compounds used at 1 and 5 μM; b) Caspase 3 apoptotic assay of the indicated compounds after 24 hrs of treatment in the U937 cells; c) Tubulin acetylation and p21 expression levels at 6 and 16 hrs after treatment with the indicated compounds; total tubulin expression levels are used for equal loading; d) Histone H3 acetylation and K9 H3 methylation expression levels at 6 and 16 hrs after treatment with the indicated compounds; total tubulin expression levels are used for equal loading; e) K9, K14, K18 histone H3 acetylation expression levels at 6 and 16 hrs after treatment with the indicated compounds; total ERKs expression levels are used for equal loading; f) HDAC1 enzymatic assay: IP-HDAC1 is incubated with the indicated inhibitors for 24 Hrs; activity is measured as ^3H-acetyl release; g) HDAC4 enzymatic assay: IP-HDAC4 is incubated with the indicated inhibitors for 24 hrs; activity is measured as ^3H-acetyl release.
(§3) FIG. 3: a) Cell cycle and apoptosis analysis carried out in U937 cells after 24 hrs with the indicated compounds; values are media of independent triplicates; b) CD11c expression analysis carried out in U937 cells with the indicated compounds; values are media of independent duplicates; c) Tubuline acetylation and p21 expression levels in U937 cells after 24 hrs with the indicated treatments; total ERKs expression levels are used for equal loading; d) acetylation of histone H3 under the conditions indicated in (c).
For the determination of p21^WAF1/CIP1 and p16^INK4 100 μg of total protein extracts were separated on a 15% polyacrylammide gels and blotted. Western blots were shown for p21 (Transduction Laboratories, dilution 1:500), p16 (Santa Cruz) and total ERKs (Santa Cruz) were used to normalise for equal loading. For alpha-tubulin acetylation 25 μg of total protein extracts were separated on a 10% polyacrylamide gels and blotted. […]
In general terms: A western blot detects proteins with antibodies after separation by electrophoresis.

Data set [3] has as its system histone deacetylases (HDAC). Particulars: in vitro cell-free enzyme assay; read-out: IC50, inhibition of histone deacetylases (HDAC); cited from earlier work.
Data set [4] has as its system prostate cancer cells (LnCap). Description: Anti-proliferative and apoptogenic action in prostate cancer cells. Particulars: data not shown. It counts as cell-based.
Another data set relates to histone H3. Briefly: Histone H3 acetylation and K9 H3 methylation levels in U937 cells. It counts as cell-based, human. To be noted: U937, 6 and 16 hrs. Here is the method:
as §2
For the determination of p21^WAF1/CIP1 and p16^INK4 100 μg of total protein extracts were separated on a 15% polyacrylammide gels and blotted. Western blots were shown for p21 (Transduction Laboratories, dilution 1:500), p16 (Santa Cruz) and total ERKs (Santa Cruz) were used to normalise for equal loading. For alpha-tubulin acetylation 25 μg of total protein extracts were separated on a 10% polyacrylamide gels and blotted. Western blots were shown for acetylated alpha-tubulin (Sigma, dilution 1:500) and total ERKs (Santa Cruz) or total tubulin (Sigma) were used to normalise for equal loading.

A further data set concerns the target T1, HDAC6 (Homo sapiens, UniProt Q9UBN7).
T1 construct: Tubuline acetylation and p21 expression levels in U937 cells after 24 hrs with the indicated treatments; endogenous in cells; host or cells: U937
Briefly: Alpha tubulin acetylation in U937 cells (HDAC6 readout). To be noted: U937, 6 and 16 hrs. It counts as cell-based. How it is done:
as §2, with “release. […]” for “release.”

For data set [5], the system named is U937 acute myeloid leukemia cell line. Briefly: Cell cycle analysis in U937 cells. It counts as cell-based, human. Here is the method: as §2, §3, §1
MS-275 (Schering A G) was dissolved in ethanol and used at 5×10^−6M; valproic acid (VPA; Sigma) was used at 1 mM. All other compounds described were dissolved in DMSO (Sigma-Aldrich) and used at 1 or 5 μM.
2.5×10^5 cells were collected and resuspended in 500 μL of a hypotonic buffer (0.1% Triton X-100, 0.1% sodium citrate, 50 μg/mL propidium iodide, RNAse A). Cells were incubated in the dark for 30 min. Samples were acquired on a FACS-Calibur flow cytometer using the Cell Quest software (Becton Dickinson) and analysed with standard procedures using the Cell Quest software (Becton Dickinson) and the ModFit LT version 3 Software (Verity). All the experiments were performed 3 times.

The target in another data set is HDAC4 (Homo sapiens, UniProt P56524). Briefly: HDAC4 enzymatic assay (IP-HDAC4, 3H-acetyl release). It counts as biochemical. To be noted: IP-HDAC4 incubated with inhibitor 24 hrs. Here is the method: as §2
For data set [6], the system named is breast cancer cells (ZR75.1). Description: Anti-proliferative and apoptogenic action in breast cancer cells. To be noted: data not shown. It counts as cell-based.
Another data set has as its system U937 cells. Description: Caspase 3 apoptotic assay in U937 cells. It counts as cell-based, human. Particulars: U937, 24 hrs. How it is done: as §2
The target of a further data set is HDAC1 (Homo sapiens, UniProt Q13547). Briefly: HDAC1 enzymatic assay (IP-HDAC1, 3H-acetyl release). It counts as biochemical. To be noted: IP-HDAC1 incubated with inhibitor 24 hrs. Here is the method:
as §2

Data set [7] can be described thus: Earlier tolerability tests in mice. It counts as in vivo. Particulars: 30 mg/kg. An excerpt: There were 10 animals in each group.
Where [8] appears, read: day 1, 20 mg/kg i.p. every second day.
Setting [9] is: day 4, 20 mg/kg i.p. every second day.
Setting [10] is: day 12, 20 mg/kg i.p. every second day.
Where [11] appears, read: day 17, 20 mg/kg i.p. every second day.
[12] abbreviates: day 22, 20 mg/kg i.p. every second day.

This is an account of results in patent US8338473B2, “Derivatives of psammaplin A, a method for their synthesis and their uses for the prevention or treatment of cancer” (Centre National de la Recherche Scientifique, priority 2007, dated 2012).

Like-named read-outs stand apart in the source and are kept apart here.

T1 sequence (Q9UBN7 whole entry): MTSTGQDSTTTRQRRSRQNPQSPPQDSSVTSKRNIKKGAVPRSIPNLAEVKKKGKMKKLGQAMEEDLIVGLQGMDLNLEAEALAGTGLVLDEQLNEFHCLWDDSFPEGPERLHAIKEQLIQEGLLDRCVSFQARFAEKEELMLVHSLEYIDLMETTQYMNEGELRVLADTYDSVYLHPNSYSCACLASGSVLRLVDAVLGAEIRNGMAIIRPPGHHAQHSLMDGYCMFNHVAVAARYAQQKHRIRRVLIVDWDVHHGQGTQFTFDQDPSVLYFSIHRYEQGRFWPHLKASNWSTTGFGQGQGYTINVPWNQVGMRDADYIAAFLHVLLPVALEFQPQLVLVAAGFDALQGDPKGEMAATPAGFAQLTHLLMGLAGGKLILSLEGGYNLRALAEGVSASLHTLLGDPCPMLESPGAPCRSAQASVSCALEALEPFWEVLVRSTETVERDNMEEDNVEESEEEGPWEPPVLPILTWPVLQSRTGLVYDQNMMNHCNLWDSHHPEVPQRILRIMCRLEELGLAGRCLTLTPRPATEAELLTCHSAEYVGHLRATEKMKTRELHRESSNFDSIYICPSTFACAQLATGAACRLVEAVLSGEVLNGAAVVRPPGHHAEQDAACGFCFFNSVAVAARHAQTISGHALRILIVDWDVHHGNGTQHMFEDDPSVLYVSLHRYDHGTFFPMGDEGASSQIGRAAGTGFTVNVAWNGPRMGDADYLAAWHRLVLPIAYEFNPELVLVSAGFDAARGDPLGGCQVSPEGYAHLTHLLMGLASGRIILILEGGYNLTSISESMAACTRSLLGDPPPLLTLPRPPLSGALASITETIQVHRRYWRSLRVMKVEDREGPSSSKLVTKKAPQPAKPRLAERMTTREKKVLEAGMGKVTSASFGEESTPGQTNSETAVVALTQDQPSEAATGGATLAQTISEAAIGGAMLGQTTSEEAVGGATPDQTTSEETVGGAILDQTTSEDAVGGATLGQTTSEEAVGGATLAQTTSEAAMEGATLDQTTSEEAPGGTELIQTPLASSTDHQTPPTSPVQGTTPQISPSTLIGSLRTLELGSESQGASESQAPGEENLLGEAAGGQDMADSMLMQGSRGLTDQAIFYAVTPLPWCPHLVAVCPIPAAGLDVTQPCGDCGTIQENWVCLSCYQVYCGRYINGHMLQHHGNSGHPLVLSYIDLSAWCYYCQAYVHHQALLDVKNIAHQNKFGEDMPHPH
Chain of HDAC4 (P56524 whole entry, species assumed): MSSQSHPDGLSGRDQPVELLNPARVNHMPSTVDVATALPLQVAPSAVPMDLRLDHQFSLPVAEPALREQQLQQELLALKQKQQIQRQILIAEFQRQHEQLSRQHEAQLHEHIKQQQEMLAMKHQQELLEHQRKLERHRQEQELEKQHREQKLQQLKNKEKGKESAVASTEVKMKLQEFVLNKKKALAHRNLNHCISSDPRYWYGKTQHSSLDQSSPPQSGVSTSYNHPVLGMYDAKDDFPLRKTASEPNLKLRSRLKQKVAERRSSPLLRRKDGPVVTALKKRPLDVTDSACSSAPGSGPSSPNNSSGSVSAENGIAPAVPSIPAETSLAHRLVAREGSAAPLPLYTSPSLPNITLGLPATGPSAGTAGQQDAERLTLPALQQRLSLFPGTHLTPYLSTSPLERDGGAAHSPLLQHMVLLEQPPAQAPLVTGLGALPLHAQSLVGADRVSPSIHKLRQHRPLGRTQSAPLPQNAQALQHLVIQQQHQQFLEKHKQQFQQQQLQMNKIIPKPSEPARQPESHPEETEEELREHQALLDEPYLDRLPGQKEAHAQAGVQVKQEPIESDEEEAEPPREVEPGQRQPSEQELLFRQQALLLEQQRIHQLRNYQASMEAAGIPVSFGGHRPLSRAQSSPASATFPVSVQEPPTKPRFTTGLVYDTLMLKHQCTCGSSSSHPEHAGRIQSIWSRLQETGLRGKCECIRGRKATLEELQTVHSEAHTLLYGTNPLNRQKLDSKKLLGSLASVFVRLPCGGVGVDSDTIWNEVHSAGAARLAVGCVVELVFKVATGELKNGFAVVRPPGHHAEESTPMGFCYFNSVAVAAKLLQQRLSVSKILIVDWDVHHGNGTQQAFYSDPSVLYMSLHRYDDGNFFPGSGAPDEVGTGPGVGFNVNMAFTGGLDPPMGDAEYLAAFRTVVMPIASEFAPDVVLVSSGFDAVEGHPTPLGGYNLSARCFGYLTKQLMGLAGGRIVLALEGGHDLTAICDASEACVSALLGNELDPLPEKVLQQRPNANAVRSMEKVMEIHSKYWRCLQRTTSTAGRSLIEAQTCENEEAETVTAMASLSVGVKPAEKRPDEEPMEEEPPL
Chain of HDAC4 (O15379 whole entry partner, species assumed): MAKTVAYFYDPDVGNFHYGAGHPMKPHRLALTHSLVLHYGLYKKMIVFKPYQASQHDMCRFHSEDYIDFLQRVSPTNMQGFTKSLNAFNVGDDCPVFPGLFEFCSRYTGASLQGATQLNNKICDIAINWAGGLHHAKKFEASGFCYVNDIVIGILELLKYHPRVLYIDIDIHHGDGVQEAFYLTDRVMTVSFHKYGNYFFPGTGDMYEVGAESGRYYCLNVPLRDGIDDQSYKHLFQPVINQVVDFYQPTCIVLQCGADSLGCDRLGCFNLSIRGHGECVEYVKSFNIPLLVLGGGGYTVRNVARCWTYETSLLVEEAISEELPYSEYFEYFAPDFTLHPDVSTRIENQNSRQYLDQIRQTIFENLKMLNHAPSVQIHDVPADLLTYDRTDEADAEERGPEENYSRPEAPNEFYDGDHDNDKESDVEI
Chain of HDAC1 (Q13547 whole entry, species assumed): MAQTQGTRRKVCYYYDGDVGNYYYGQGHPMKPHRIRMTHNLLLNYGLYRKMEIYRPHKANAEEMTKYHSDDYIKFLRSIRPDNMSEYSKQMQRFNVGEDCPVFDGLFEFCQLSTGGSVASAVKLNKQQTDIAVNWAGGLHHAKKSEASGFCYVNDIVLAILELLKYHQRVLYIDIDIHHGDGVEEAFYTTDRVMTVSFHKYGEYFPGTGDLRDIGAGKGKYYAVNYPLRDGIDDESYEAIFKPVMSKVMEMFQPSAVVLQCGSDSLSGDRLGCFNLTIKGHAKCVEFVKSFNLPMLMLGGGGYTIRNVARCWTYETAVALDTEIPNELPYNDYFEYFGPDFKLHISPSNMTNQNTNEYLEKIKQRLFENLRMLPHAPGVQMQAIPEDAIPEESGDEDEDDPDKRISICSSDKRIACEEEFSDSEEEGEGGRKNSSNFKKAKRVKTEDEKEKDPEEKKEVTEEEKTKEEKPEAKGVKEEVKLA

For `Nc1ccccc1NC(=O)c1ccc(CNC(=O)OCc2cccnc2)cc1` [MS-275], the “Percent Growth Inhibition after 22 days” value in data set [1] (20 mg/kg i.p. every second day) is recorded as 35 ± 12%. Also, the Normalised tumour weight in [1] (setting [8]) worked out at 100 ± 25 mg; in data set [1] (setting [9]), 202.6 ± 81.5 mg; in [1] (setting [10]) it was 746.65 ± 185 mg; in [1] (setting [11]), 1360.61 ± 288 mg; in [1] (setting [12]), 2423.09 ± 445.5 mg. The results for the IC50 in the data set with HCT-116 cells, with DU-145 cells and in the data set with A-375 cells were 2300 ± 300 nM, 8200 ± 600 nM and 2400 ± 700 nM, respectively. Further, in data set [2], the “cell cycle arrest and apoptosis (caspase 3 activation)” value was “activities similar to UVI5008”.

As to `Nc1ncn([C@@H]2O[C@H](CO)[C@@H](O)[C@H]2O)c(=O)n1` [5-azacytidine], in the data set with p16INK4a promoter, the “unmethylated p16INK4a promoter DNA (MSP)” value is “very similar to that seen with UVI5008”.

As to `O=C(NCCSSCCNC(=O)/C(Cc1ccc(O)c(Br)c1)=N/O)/C(Cc1ccc(O)c(Br)c1)=N/O` [UVI5000, Psammaplin A], the “concentration to inhibit HDAC in cell-based assay relative to enzyme-based assay” value with HDAC is recorded as 1800 times. Besides, in the data set on p21WAF1/CIP1 (U937, 6 and 16 hrs), the “expression of p21WAF1/CIP1” value is “dramatically increased”. Also, the 50% inhibitory concentration (IC50) – broadly, the concentration needed to halve the response being measured – in [3] is 4.2 nM. Further, the “unmethylated p16INK4a promoter DNA (MSP)” value in the data set with p16INK4a promoter is given as “displayed a similar activity”. Further, the “anti-proliferative and apoptogenic action” value in data set [4] and in data set [6] was “confirmed” throughout. Besides, the “global histone H3 acetylation” value with histone H3 is “moderate time-dependent increase”. In addition, the “inhibition of HDAC6 (alpha tubulin acetylation)” value against HDAC6 is on record as “inhibited the activity of HDAC6”. Moreover, the “cell cycle arrest and apoptosis (caspase 3 activation)” value in data set [2] was “induced cell cycle arrest and apoptosis”. The “cell cycle arrest, position of the block” value in data set [5] (U937, 30 hrs, 1 and 5 μM) is “arrests in the S and G2 phases”. Moreover, the “HDAC4 deacetylase activity inhibition” value at HDAC4 was “only moderate activity”. The “apoptogenic effect (caspase 3)” value in the data set with U937 cells is on record as “strongest apoptogenic effect”. Further, the HDAC1 inhibition entry at HDAC1 is listed as “only a weak inhibitor of HDAC1”.

In the case of SAHA, the Normalised tumour weight in [1] (setting [8]) stood at 100 ± 24 mg; in data set [1] (setting [9]), 166.69 ± 56.8 mg; in data set [1] (setting [10]), 892.95 ± 267.6 mg; in data set [1] (setting [11]), 1915.59 ± 409.5 mg; in data set [1] (setting [12]) it was 2952.8 ± 636.4 mg. In addition, the “unmethylated p16INK4a promoter DNA (MSP)” value with p16INK4a promoter is “inactive”. Besides, the “cell cycle arrest and apoptosis (caspase 3 activation)” value in data set [2] is given as “activities similar to UVI5008”. In data set [7], the mortality (usually the percentage killed) is given as 60%. For the same compound, the tolerability entry in data set [7] is “not tolerable”.

With `CSCCNC(=O)/C(Cc1c[nH]c2ccc(Br)cc12)=N/O` [UVI5020], in the data set with p21WAF1/CIP1 (U937, 24 hrs), the “p21WAF1/CIP1 induction (FIG. 3c)” value is recorded as “enhanced expression”. Besides, in data set [2] (5 μM, two samples of patient blasts), the apoptotic activity entry is on record as “only a weak induction of apoptosis”. Besides, the “cell cycle arrest and apoptosis, relative to UVI5008 (FIG. 3a)” value in data set [5] (U937, 24 hrs) is “inactive at inducing apoptosis and G2M arrest but it induces a G1 arrest”.
